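Protocol summary: plate cells (96-well), add compound at 5 concentrations, incubate 48 h, interpolate endpoints linearly. GI50 marks 50% less growth. TGI marks complete inhibition of growth.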
The compounds below were run on EKVX NSCLC (assay: NCI-60 cell line screen, 48 h).

Row | SMILES | TGI [µM] | GI50 [µM]
1 | CC(Cl)CN1c2ccccc2Sc2ccc(Cl)cc21 (stereo not given) | > 10 | 
2 | NCCCn1c2c(c3ccccc3c1=O)C(=O)c1ccccc1-2 | 2.9 | 0.539
3 | O=C1c2ccccc2C(=O)c2c(NCCN=Cc3ccccc3O)cccc21 | 5.44 | 1.79
4 | Oc1ccc(/C=C/c2cc(O)cc3c2C(c2cc(O)cc(O)c2)C(c2ccc(O)c(O)c2)O3)cc1 (stereo not given) | > 100 | 
5 | COc1ccc(/C=C/c2cnccn2)cc1OC | > 10 | 
6 | CCc1nc(Cl)c(Cl)c(Cl)n1 | > 100 | 
7 | O=[N+]([O-])c1ccc(Sc2c3ccccc3nc3ccccc23)cn1 | > 86.2 | 
8 | COc1cc2c3c(n(CCCN(C)CCO)c(=O)c2cc1OC)-c1cc2c(cc1C3=O)OCO2 | > 100 | > 44.4
9 | C=CCn1c(SCC(=O)Nc2ccc(C(=O)/C=C/c3cc(OC)c(OC)c(OC)c3)cc2)nnc1-c1ccc(OC)cc1 | 64 | 1.33
10 | CNC(C)[C@H]1CCC2C3CC=C4C(=O)[C@@H](NC(=O)C=C(C)C)CC[C@]4(C)C3CC[C@@]21C (stereo not given in full) | 11.2 | 1.14
11 | Clc1nc(Cl)c2ncn(Cc3ccccc3Cn3cnc4c(Cl)nc(Cl)nc43)c2n1 | 3.02 | 1.36
12 | C=C1C(O)C2C(=C(C)C13CC3)C(=O)C(C)(C)C2OC (stereo not given) | > 100 | > 100
13 | CS(=O)(=O)CS(=O)(=O)OCCCl | 1080 | 
14 | CC(C)(C)c1cc(C(=O)/C=C/c2ccc(C(=O)O)cc2)cc(C(C)(C)C)c1 | 16.9 | 
15 | COc1ccc(-c2ccc(NNC(=O)c3ccc(F)cc3)nn2)cc1OC | > 100 | > 100
16 | C=C1C(=O)OC2C1CC(OC(C)=O)/C(C)=C/CCC1(C)OC21 (stereo not given) | > 100 | 
17 | NC(=O)CNc1ccc([As]=[As]c2ccc(NCC(N)=O)cc2)cc1 (stereo not given) | 90.9 | 4.83

The compounds below were run on LOX IMVI melanoma (assay: NCI-60 cell line screen, 48 h).

Row | SMILES | GI50 [µM] | TGI [µM]
18 | COc1ccc(-c2nn(-c3cccc(Cl)c3)cc2-c2nc(N)[nH]c(=O)c2C#N)cc1 | 4.02 | 20.1
19 | COC(=O)C(=O)CC(=O)c1cccc(OC)c1 |  | > 100
20 | COc1cc2c3c(n(CCCN(CCO)CCO)c(=O)c2cc1OC)-c1cc2c(cc1C3=O)OCO2 | < 0.01 | 0.158
21 | O=C(CCN1CCOCC1)Nc1cccc(-n2cc(-c3ccncc3)c(-c3ccc(Cl)c(O)c3)n2)c1 | 1.91 | 11.8
22 | C=C(C)[C@@H]1CC[C@]2(C)[C@H](CC[C@@H]3[C@@H]([C@@](C)(O)CCC=C(C)C)CC[C@]32C)[C@@]1(C)CCC(=O)O | 17.9 | 31.8
23 | Cn1cc(S(=O)(=O)N2CCC3=Cc4c(cnn4-c4ccc(F)cc4)C[C@]3(C(=O)c3cc(C(F)(F)F)ccn3)C2)cn1 | > 100 | > 100
24 | c1ccc(NCCSc2nc3ccccc3s2)cc1 |  | > 100
25 | Oc1ccc(Oc2cnc3ccccc3n2)cc1 | > 100 | > 100
26 | Cc1ccc2occ/c(=N\Nc3ccccc3)c2c1 |  | > 100
27 | CC(=O)NC1CONC1=O (stereo not given) |  | > 100
28 | Oc1ccc(N=Nc2nccs2)c(O)c1 | 3.28 | 18.7
29 | COc1cc(/C=C/C(=O)Oc2ccccc2)ccc1C(=O)O/C=C/c1ccccc1 |  | > 100
30 | COc1ccc2c(c1)C(C)Cc1c(ncnc1-n1cnc3ccccc31)N2C (stereo not given) | 0.602 | 18.2
31 | CC(Cl)CN1c2ccccc2Sc2ccc(Cl)cc21 (stereo not given) |  | > 10
32 | NCCCn1c2c(c3ccccc3c1=O)C(=O)c1ccccc1-2 | 0.0649 | 0.702
33 | O=C1c2ccccc2C(=O)c2c(NCCN=Cc3ccccc3O)cccc21 | 3.89 | 9.63
34 | Oc1ccc(/C=C/c2cc(O)cc3c2C(c2cc(O)cc(O)c2)C(c2ccc(O)c(O)c2)O3)cc1 (stereo not given) |  | > 100
35 | COc1ccc(/C=C/c2cnccn2)cc1OC |  | > 10
36 | CCc1nc(Cl)c(Cl)c(Cl)n1 |  | > 100
37 | O=[N+]([O-])c1ccc(Sc2c3ccccc3nc3ccccc23)cn1 |  | 26.9
38 | COc1cc2c3c(n(CCCN(C)CCO)c(=O)c2cc1OC)-c1cc2c(cc1C3=O)OCO2 | 0.709 | 13.9
39 | C=CCn1c(SCC(=O)Nc2ccc(C(=O)/C=C/c3cc(OC)c(OC)c(OC)c3)cc2)nnc1-c1ccc(OC)cc1 | 0.28 | 1.03
